Structures can show the parent of a compound that is named as a salt. Where two headings read alike, the source gives them in different places.
Columns and labels:
[1] = biological target: BIR3 domain of rat XIAP (Rattus norvegicus, UniProt Q9R0I6); test: Fluorescence polarization assay, binding to BIR3 from rat XIAP
Protocol: In fluorescence polarization assays a fluorescent probe is used. The binding affinity of compounds to BIR3 is measured by competitive displacement of a fluorescent probe using fluorescence polarization anisotropy. […] In other embodiments, the probe used is 6-(6-Hydroxy-3-oxo-3H-xanthen-9-yl)-N-(5-(2-methylamino-propionylamino)-6-oxo-6-[4-(1,2,3,4-tetrahydro-naphthalen-1-ylcarbamoyl)-thiazolidin-3-yl]-hexyl)-isophthalamic acid.
The binding affinity of compounds provided herein for rat BIR3 was measured by competitive displacement of a fluorescent probe using fluorescence polarization anisotropy. […] Control conditions were set up on each plate and include free probe 1 alone (5 nM), fully bound probe (5 μM BIR3+5 nM probe 1) and binding buffer blank. The-EC50 of binding was computed from a 4-parameter fit of the measured anisotropies using the SoftMax Pro 4.6 software package (Molecular Dynamics, Sunnyvale, Calif.).
Alternatively, probe 1 was substituted with probe 2: 6-(6-Hydroxy-3-oxo-3H-xanthen-9-yl)-N-{5-(2-methylamino-propionylamino)-6-oxo-6-[4-(1,2,3,4-tetrahydro-naphthalen-1-ylcarbamoyl)-thiazolidin-3-yl]-hexyl}-isophthalamic acid, for rat BIR3 and the concentrations of assay components changed. […] Controls were adjusted accordingly.

[2] = biological target: T1, BIR3-mediated Caspase-9 inhibition (UniProt Q9R0I6); test: Caspase-9 rescue assay (relief of BIR3-mediated Caspase-9 inhibition); assay type: biochemical, human Caspase-9; Rat or Chicken BIR3; settings: average EC50, substrate Ac-LEHD-amc, pH 6.5
T1 construct: Nothing is printed for this assay
Protocol: Additionally the compounds and compositions can be evaluated for their ability to achieve relief of BIR3-mediated Caspase-9 inhibition by measuring Caspase-9 reactivation. The fluorogenic substrate Ac-LEHD-7-amido-4-methylcoumarin is used in these methods. EC50 values of tested BIR3 inhibitors or Caspase-9 rescuers is calculated from the percentage of Caspase-9 reactivation in the mixtures containing serially diluted concentrations of tested compound. Typically, 10-point curves are generated for such EC50 determination.
Relief of BIR3-mediated Caspase-9 inhibition by BIR3 inhibitors was assayed by measuring Caspase-9 reactivation using the fluorogenic substrate Ac-LEHD-7-amido-4-methylcoumarin. A truncated form of human Caspase-9 that lacks the N-terminal Caspase recruitment domain (EPro-Caspase-9 or p35/p12) was used in the assay. This form of the enzyme has the full catalytic activity and the same substrate specificity as the full-length protein in the Apaf-1/Cytochrome C/dATP/Caspase-9 reconstituted system. Rat or Chicken BIR3 was used in this assay. […] This mixture was incubated for 40 min to allow equilibration at 25° C., and the assay progression was subsequently followed by monitoring the formation of fluorescent 7-amido-4-methylcoumarin over time at 460 nm using an excitation wavelength of 360 nm. […] EC50 values of tested BIR3 inhibitors or Caspase-9 rescuers were calculated from the percentage of Caspase-9 reactivation in the mixtures containing serially diluted concentrations of tested compound.

BIR3 domain of rat XIAP, sequence (Q9R0I6 241-355): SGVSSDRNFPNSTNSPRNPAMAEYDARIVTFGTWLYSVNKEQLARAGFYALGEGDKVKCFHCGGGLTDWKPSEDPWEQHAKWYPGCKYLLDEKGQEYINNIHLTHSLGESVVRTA

CNC(C)C(=O)NC(C(=O)N1CSCC1C(=O)NC1CCc2ccccc21)C(C)C (stereo not shown) [3-[3-Methyl-2-(2-methylamino-propionylamino)-butyryl]-thiazolidine-4-carboxylic acid indan-1-ylamide]
EC50 [1]: < 1 µM | EC50 [2]: < 1 µM

CNC(C)C(=O)NC(C(=O)N1CS(=O)(=O)CC1C(=O)NC1CCCc2ccccc21)C(C)C (stereo not shown) [3-[3-Methyl-2-(2-methylamino-propionylamino)-butyryl]-1,1-dioxo-1l6-thiazolidine-4-carboxylic acid (1,2,3,4-tetrahydro-naphthalen-1-yl)-amide]
EC50 [1]: < 1 µM | EC50 [2]: < 1 µM

CNC(C)C(=O)NC(C(=O)N(C)C(CCCCNC(=O)OCc1ccccc1)C(=O)NC1CCCc2ccccc21)C(C)C (stereo not shown) [[5-{Methyl-[3-methyl-2-(2-methylamino-propionylamino)-butyryl]-amino}-5-(1,2,3,4-tetrahydro-naphthalen-1-ylcarbamoyl)-pentyl]-carbamic acid benzyl ester]
EC50 [1]: < 1 µM | EC50 [2]: 1 to 10 µM

CN[C@@H](C)C(=O)N[C@H]1CCCC2CC[C@@H](C(=O)N[C@@H]3CCCc4ccccc43)N2C1=O (stereo partly shown) [6-(2-Methylamino-propionylamino)-5-oxo-octahydro-pyrrolo[1,2-a]azepine-3-carboxylic acid (1,2,3,4-tetrahydro-naphthalen-1-yl)-amide]
EC50 [1]: < 1 µM | EC50 [2]: < 1 µM

CNC(C)C(=O)NC(C(=O)N(CCc1ccccc1)CC(=O)NC1CCCc2ccccc21)C(C)(C)C (stereo not shown) [3,3-Dimethyl-2-(2-methylamino-propionylamino)-N-phenethyl-N-[(1,2,3,4-tetrahydro-naphthalen-1-ylcarbamoyl)-methyl]-butyramide TFA salt]
EC50 [1]: 1 to 10 µM | EC50 [2]: > 10 µM

CNC(C)C(=O)NC(C(=O)N1CCSCC1C(=O)NC1CCCc2ccccc21)C(C)C (stereo not shown) [4-[3-Methyl-2-(2-methylamino-propionylamino)-butyryl]-thiomorpholine-3-carboxylic acid (1,2,3,4-tetrahydro-naphthalen-1-yl)-amide]
EC50 [1]: < 1 µM | EC50 [2]: 1 to 10 µM

CNC(C)C(=O)NC(C(=O)N1CSCC1C(=O)NC(c1ccccc1)c1ccccc1)C(C)C (stereo not shown) [3-[3-Methyl-2-(2-methylamino-propionylamino)-butyryl]-thiazolidine-4-carboxylic acid benzhydryl-amide]
EC50 [1]: < 1 µM | EC50 [2]: < 1 µM

CNC(C)C(=O)NC(C(=O)NC(CCCCNS(C)(=O)=O)C(=O)NC1CCCc2ccccc21)C(C)C (stereo not shown) [6-Methanesulfonylamino-2-[3-methyl-2-(2-methylamino-propionylamino)-butyrylamino]-hexanoic acid (1,2,3,4-tetrahydro-naphthalen-1-yl)-amide]
EC50 [1]: < 1 µM | EC50 [2]: < 1 µM

CNC(C)C(=O)NC(C(=O)N1Cc2ccccc2CC1C(=O)NC(c1ccccc1)c1ccccc1)C(C)C (stereo not shown) [2-[3-Methyl-2-(2-methylamino-propionylamino)-butyryl]-1,2,3,4-tetrahydro-isoquinoline-3-carboxylic acid benzhydryl-amide]
EC50 [1]: < 1 µM | EC50 [2]: 1 to 10 µM

CNC(C)C(=O)NC(C(=O)N1Cc2ccccc2CC1C(=O)NC1CCCc2ccccc21)C(C)C (stereo not shown) [2-[3-Methyl-2-(2-methylamino-propionylamino)-butyryl]-1,2,3,4-tetrahydro-isoquinoline-3-carboxylic acid (1,2,3,4-tetrahydro-naphthalen-1-yl)-amide]
EC50 [1]: < 1 µM | EC50 [2]: < 1 µM

CNC(C)C(=O)NC(C(=O)NC(C(=O)NC1CCCc2ccccc21)c1ccccc1)C(C)C (stereo not shown) [3-Methyl-2-(2-methylamino-propionylamino)-N-[phenyl-(1,2,3,4-tetrahydro-naphthalen-1-ylcarbamoyl)-methyl]-butyramide]
EC50 [1]: < 1 µM | EC50 [2]: < 1 µM

CNC(C)C(=O)NC(C(=O)NC(CCCCNS(=O)(=O)c1ccc([N+](=O)[O-])cc1)C(=O)NC1CCCc2ccccc21)C(C)C (stereo not shown) [2-[3-Methyl-2-(2-methylamino-propionylamino)-butyrylamino]-6-(4-nitro-benzenesulfonylamino)-hexanoic acid (1,2,3,4-tetrahydro-naphthalen-1-yl)-amide]
EC50 [1]: < 1 µM | EC50 [2]: < 1 µM

CNC(C)C(=O)NC(C(=O)NC(C(=O)NC1CCCc2ccccc21)C1CCCCC1)C(C)C (stereo not shown) [N-[Cyclohexyl-(1,2,3,4-tetrahydro-naphthalen-1-ylcarbamoyl)-methyl]-3-methyl-2-(2-methylamino-propionylamino)-butyramide]
EC50 [1]: < 1 µM | EC50 [2]: < 1 µM

CNC(C)C(=O)NC(C(=O)NC(CCCCNC(=O)OCc1ccccc1Cl)C(=O)NC1CCCc2ccccc21)C(C)C (stereo not shown) [[5-[3-Methyl-2-(2-methylamino-propionylamino)-butyrylamino]-5-(1,2,3,4-tetrahydro-naphthalen-1-ylcarbamoyl)-pentyl]-carbamic acid 2-chloro-benzyl ester]
EC50 [1]: < 1 µM | EC50 [2]: < 1 µM

CNC(C)C(=O)NC(C(=O)NC(CCNC(=O)OCc1ccccc1)C(=O)NC1CCCc2ccccc21)C(C)C (stereo not shown) [[3-[3-Methyl-2-(2-methylamino-propionylamino)-butyrylamino]-3-(1,2,3,4-tetrahydro-naphthalen-1-ylcarbamoyl)-propyl]-carbamic acid benzyl ester]
EC50 [1]: < 1 µM | EC50 [2]: 1 to 10 µM

CN[C@@H](C)C(=O)N[C@H](C(=O)N1COC[C@H]1C(=O)N[C@@H]1CCCc2ccccc21)C(C)C [3-[3-Methyl-2-(2-methylamino-propionylamino)-butyryl]-oxazolidine-4-carboxylic acid (1,2,3,4-tetrahydro-naphthalen-1-yl)-amide]
EC50 [1]: < 1 µM | EC50 [2]: < 1 µM

CNC(C)C(=O)NC(C(=O)N1CC2(CC1C(=O)NC1CCCc3ccccc31)SCCS2)C(C)C (stereo not shown) [7-[3-Methyl-2-(2-methylamino-propionylamino)-butyryl]-1,4-dithia-7-aza-spiro[4.4]nonane-8-carboxylic acid (1,2,3,4-tetrahydro-naphthalen-1-yl)-amide]
EC50 [1]: < 1 µM | EC50 [2]: 1 to 10 µM

CNC(C)C(=O)NC(C(=O)N1CSCC1C(=O)NN(Cc1ccccc1)Cc1ccccc1)C(C)C (stereo not shown) [N-{1-[4-(N′,N′-Dibenzyl-hydrazinocarbonyl)-thiazolidine-3-carbonyl]-2-methyl-propyl}-2-methylamino-propionamide]
EC50 [1]: < 1 µM | EC50 [2]: < 1 µM

CNC(C)C(=O)NC(C(=O)NC(Cc1ccccc1)C(=O)NC1CCCc2ccccc21)C(C)C (stereo not shown) [3-Methyl-2-(2-methylamino-propionylamino)-N-[2-phenyl-1-(1,2,3,4-tetrahydro-naphthalen-1-ylcarbamoyl)-ethyl]-butyramide]
EC50 [1]: 1 to 10 µM | EC50 [2]: > 10 µM

CNC(C)C(=O)NC(C(=O)NC(CCCCNC(C)=O)C(=O)NC1CCCc2ccccc21)C(C)C (stereo not shown) [6-Acetylamino-2-[3-methyl-2-(2-methylamino-propionylamino)-butyrylamino]-hexanoic acid (1,2,3,4-tetrahydro-naphthalen-1-yl)-amide]
EC50 [1]: < 1 µM | EC50 [2]: 1 to 10 µM

CN[C@@H](C)C(=O)N[C@H](C(=O)N(C)[C@@H](CCCNC(=N)NS(=O)(=O)c1ccc(C)cc1)C(=O)N[C@@H]1CCCc2ccccc21)C(C)C [(S)-2-((S)-N,3-dimethyl-2-((S)-2-(methylamino)propanamido)butanamido)-N-((R)-1,2,3,4-tetrahydronaphthalen-1-yl)-5-(3-Htosylguanidino)pentanamide; 2,2,2-trifluoroacetic acid salt]
EC50 ([1]; read-out: EC50 for binding to BIR3, average EC50, BIR3 domain of rat XIAP, competitive displacement of fluorescent probe): < 1 µM | EC50 [2]: < 1 µM

CNC(C)C(=O)NC(C(=O)N1CSCC1C(=O)NN(c1ccccc1)c1ccccc1)C(C)C (stereo not shown) [N-{1-[4-(N′,N′-Diphenyl-hydrazinocarbonyl)-thiazolidine-3-carbonyl]-2-methyl-propyl}-2-methylamino-propionamide]
EC50 [1]: < 1 µM | EC50 [2]: 1 to 10 µM

CCCCCN1C(=O)CCC(NC(=O)C(C)NC)C(=O)N1CC(=O)NC1CCCc2ccccc21 (stereo not shown) [N-{3,7-Dioxo-1-pentyl-2-[(1,2,3,4-tetrahydro-naphthalen-1-ylcarbamoyl)-methyl]-[1,2]diazepan-4-yl}-2-methylamino-propionamide]
EC50 [1]: 1 to 10 µM | EC50 [2]: > 10 µM

CCCCN(CCCC)CCCCC(NC(=O)C(NC(=O)C(C)NC)C(C)C)C(=O)NC1CCCc2ccccc21 (stereo not shown) [6-Dibutylamino-2-[3-methyl-2-(2-methylamino-propionylamino)-butyrylamino]-hexanoic acid (1,2,3,4-tetrahydro-naphthalen-1-yl)-amide]
EC50 [1]: < 1 µM | EC50 [2]: < 1 µM

CNC(C)C(=O)NC(C(=O)NC(CCOCc1ccccc1)C(=O)NC1CCCc2ccccc21)C(C)C (stereo not shown) [N-[3-Benzyloxy-1-(1,2,3,4-tetrahydro-naphthalen-1-ylcarbamoyl)-propyl]-3-methyl-2-(2-methylamino-propionylamino)-butyramide]
EC50 [1]: < 1 µM | EC50 [2]: 1 to 10 µM

CNC(C)C(=O)NC1CCc2cccc3c2N(C1=O)C(C(=O)NC1CCCc2ccccc21)C3 (stereo not shown) [5-(2-Methylamino-propionylamino)-4-oxo-1,2,4,5,6,7-hexahydro-azepino[3,2,1-hi]indole-2-carboxylic ′acid (1,2,3,4-tetrahydro-naphthalen-1-yl)-amide]
EC50 [1]: < 1 µM | EC50 [2]: 1 to 10 µM

Source: patent US20100190688A1, “Tetrapeptide analogs” (priority 2004, published 2010)
